Test results published in US20050244966A1, “Insulin producing cells” (Ramot At Tel Aviv University Ltd., priority 2003, published 2005).

System: FH-B-TPN cells
Test: Insulin content of FH-B-TPN cells (RIA/ELISA of cell extracts)
Format: cell-based, human
Details: for Insulin content / Fold increase (insulin content): FH-B-TPN cells; for Insulin content / Effect on insulin content of FH-B-TPN cells (in words): RIA; for Fold increase (insulin content): vs CM; for Effect on insulin content of FH-B-TPN cells (in words): in CM, compared with regular medium or with Act-A alone
Procedure: FH cells were isolated and cultured as described (19), in Dulbecco's modified Eagle's medium containing 25 mM glucose and supplemented with 10% fetal bovine serum (FBS), 100 U/ml penicillin, 100 μg/ml streptomycin, 5 μM hydrocortisone, and 5 μg/ml insulin. A subclone of FH cells that was stably transduced with hTERT, designated FH-B-hTERT (FH-B), was cultured in the same medium, as described (20). FH-B cells transduced with the Pdx1 gene (see below), designated FH-B-TPN cells, were maintained in the same culture medium, with the exception of hydrocortisone and insulin (complete medium CM). For incubation in serum-free medium, the cells were placed in DMEM containing antibiotics, in the presence of 100 ng/ml insulin, 55 ng/ml transferrin, and 50 pg/ml selenium (ITS, Sigma). For all experiments activin A (Cytolab/PreproTech Asia, Rehovot, Israel) was added at a final concentration of 4 nM. except for those aimed at promoting differentiation of FH-B-TPN cells towards the beta-cell phenotype. There, addition of Act-A, as well as betacellulin (BTC, R&D Systems, Minneapolis, Minn.), nicotinamide (NA), exendin-4, and hepatocyte growth factor (HGF) (the last 3 compounds from Sigma-Aldrich) was at concentrations detailed herein below.
Insulin secretion from FH-B-TPN cells was measured by static incubation as previously described (2). Cells were plated in 24-well plates at 10^5 cells per well. The cells were preincubated for 1 hour in Krebs-Ringer buffer (KRB), followed by incubation for the indicated period of time in KRB containing 0.5 mM 1-isobutyl 3-methylxanthine (IBMX) and glucose at various concentrations. The cells were then extracted in acetic acid, and the amount of insulin in the buffer and cell extract was determined by radioimmunoassay (RIA) using the INSIK-5 kit (DiaSorin, Vercelli, Italy) according to the manufacturer. This assay has <20% crossreactivity with proinsulin. In addition, insulin content was determined using an ELISA kit (Diagnostic Systems Laboratories, Webster, Tex. or (Mercodia, Uppsala, Sweden), which recognizes only mature insulin. Insulin content was normalized to total cellular protein, measured by the Bio-Rad (Hercules, Calif.) Protein Assay kit. Human C-peptide in the cell extract was determined using a RIA kit (DiaSorin, Vercelli, Italy) or ELISA kit (Mercodia, Uppsala, Sweden) according to the manufacturers.

Molecule | Insulin content (5 mM in CM (6 d)) [ng/10^6 cells] | Fold increase (insulin content) (5 mM in CM (6 d)) | Effect on insulin content of FH-B-TPN cells (in words) | Insulin content (2-8 nM in CM (6 d)) [ng/10^6 cells] | Fold increase (insulin content) (2-8 nM in CM (6 d))
NC(=O)c1cccnc1 [NA, nicotinamide, reference compound] | 122 ± 20 | 0.6 | decrease |  | 
exendin-4 [reference compound] |  |  | decrease | 0 | 0
